According to ChEMBL document CHEMBL4261591, “Antimicrobial 1,3,4-trisubstituted-1,2,3-triazolium salts” (2018):

Legend:
Assay type in all cases: functional
Escherichia coli = experiment: microbe, parasite or virus in culture; settings: ATCC 25922, 24 h
Description: Antibacterial activity against Escherichia coli ATCC 25922 after 24 hrs by CLSI broth microdilution assay

Saccharomyces cerevisiae = experiment: microbe, parasite or virus in culture; settings: ATCC 9763, 24 h
Description: Antifungal activity against Saccharomyces cerevisiae ATCC 9763 after 24 hrs by CLSI broth microdilution assay

[1] = test system: Staphylococcus epidermidis; experiment: microbe, parasite or virus in culture; settings: ATCC 14990, 24 h
Description: Antibacterial activity against Staphylococcus epidermidis ATCC 14990 after 24 hrs by CLSI broth microdilution assay

Candida albicans = experiment: microbe, parasite or virus in culture; settings: ATCC 90028, 24 h
Description: Antifungal activity against Candida albicans ATCC 90028 after 24 hrs by CLSI broth microdilution assay

Bacillus subtilis = experiment: microbe, parasite or virus in culture; settings: ATCC 6051, 24 h
Description: Antibacterial activity against Bacillus subtilis ATCC 6051 after 24 hrs by CLSI broth microdilution assay

Klebsiella aerogenes = experiment: microbe, parasite or virus in culture; settings: ATCC 13048, 24 h
Description: Antibacterial activity against Enterobacter aerogenes ATCC 13048 after 24 hrs by CLSI broth microdilution assay

[2] = Selectivity index, ratio of MIC for Candida albicans ATCC 90028 to MIC for Bacillus subtilis ATCC 6051
[3] = Selectivity index, ratio of MIC for Candida albicans ATCC 90028 to MIC for Staphylococcus epidermidis ATCC 14990
[4] = Selectivity index, ratio of MIC for Saccharomyces cerevisiae ATCC 9763 to MIC for Bacillus subtilis ATCC 6051
[5] = Selectivity index, ratio of MIC for Saccharomyces cerevisiae ATCC 9763 to MIC for Staphylococcus epidermidis ATCC 14990
[6] = Selectivity index, ratio of MIC for Enterobacter aerogenes ATCC 13048 to MIC for Bacillus subtilis ATCC 6051
[7] = Selectivity index, ratio of MIC for Escherichia coli ATCC 25922 to MIC for Staphylococcus epidermidis ATCC 14990
[8] = Selectivity index, ratio of MIC for Escherichia coli ATCC 25922 to MIC for Bacillus subtilis ATCC 6051
[9] = Selectivity index, ratio of MIC for Enterobacter aerogenes ATCC 13048 to MIC for Staphylococcus epidermidis ATCC 14990

Row | MIC (Escherichia coli) [µM] | MIC (Saccharomyces cerevisiae) [µM] | MIC [1] [µM] | MIC (Candida albicans) [µM] | MIC (Bacillus subtilis) [µM] | MIC (Klebsiella aerogenes) [µM] | SMILES | Selectivity Index [2] | Selectivity Index [3] | Selectivity Index [4] | Selectivity Index [5] | Selectivity Index [6] | Selectivity Index [7] | Selectivity Index [8] | Selectivity Index [9]
1 | > 250 | > 250 | > 250 | > 250 | > 250 | > 250 | Cc1ccc(-[n+]2nn(Cc3ccccc3)cc2-c2ccccc2)cc1 |  |  |  |  |  |  |  | 
2 | > 250 | > 250 | > 250 | > 250 | > 250 | > 250 | Cc1ccc(-n2cc(-c3ccccc3)[n+](Cc3ccccc3)n2)cc1 |  |  |  |  |  |  |  | 
3 | > 250 | > 250 | 16 | > 250 | 16 | > 250 | Cc1ccc(-[n+]2nn(Cc3ccc(C(C)(C)C)cc3)cc2-c2ccccc2)cc1 |  |  |  |  |  |  |  | 
4 | > 250 | 250 | 8 | 250 | 8 | > 250 | CCCCCCCCc1cn(Cc2ccccc2)n[n+]1Cc1ccccc1 |  |  |  |  |  |  |  | 
5 | 8 | 8 | 2 | 8 | 1 | 8 | CCCCCCCCCCCCc1cn(-c2ccc(C)cc2)n[n+]1Cc1ccccc1 |  |  |  |  |  |  |  | 
6 | > 250 | 250 | 8 | 250 | 8 | > 250 | CCCCc1cn(Cc2ccccc2)n[n+]1Cc1ccc(C(C)(C)C)cc1 |  |  |  |  |  |  |  | 
7 | 250 | 4 | 2 | 4 | 2 | 250 | CCCCCCCCCCCCc1cn(-c2ccc(C)cc2)n[n+]1Cc1ccc(C(C)(C)C)cc1 |  |  |  |  |  |  |  | 
8 | > 250 | > 250 | 8 | > 250 | 8 | > 250 | Cc1ccc(-n2cc(-c3ccccc3)[n+](Cc3ccc(C(C)(C)C)cc3)n2)cc1 |  |  |  |  |  |  |  | 
9 | > 250 | 250 | 8 | 250 | 4 | > 250 | CCCCCCCCc1cn(-c2ccc(C)cc2)n[n+]1Cc1ccccc1 | > 50 | > 50 | > 50 | > 50 | > 50 | > 50 | > 50 | > 50
10 | 31 | 16 | 2 | 8 | 1 | 31 | CCCCCCCCc1cn(Cc2ccccc2)n[n+]1Cc1ccc(C(C)(C)C)cc1 |  |  |  |  |  |  |  | 
11 | 16 | 16 | 4 | 16 | 2 | 16 | CCCCCCCCCCCCc1cn(Cc2ccccc2)n[n+]1Cc1ccccc1 |  |  |  |  |  |  |  | 
12 | 16 | 8 | 2 | 4 | 2 | 16 | CCCCCCCCc1cn(-c2ccc(C)cc2)n[n+]1Cc1ccc(C(C)(C)C)cc1 |  |  |  |  |  |  |  | 
13 | > 250 | > 250 | > 250 | > 250 | > 250 | > 250 | CCCCc1cn(Cc2ccccc2)n[n+]1Cc1ccccc1 |  |  |  |  |  |  |  | 
14 | 250 | 16 | 2 | 8 | 2 | 250 | CCCCCCCCCCCCc1cn(Cc2ccccc2)n[n+]1Cc1ccc(C(C)(C)C)cc1 |  |  |  |  |  |  |  | 
15 | 250 | 250 | 4 | 250 | 4 | > 250 | CCCCc1cn(-c2ccc(C)cc2)n[n+]1Cc1ccc(C(C)(C)C)cc1 | > 50 | > 50 | > 50 | > 50 | > 50 | > 50 | > 50 | > 50
16 | > 250 | > 250 | > 250 | > 250 | > 250 | > 250 | CCCCc1cn(-c2ccc(C)cc2)n[n+]1Cc1ccccc1 |  |  |  |  |  |  |  | 
